# Source: publication PMC9841533, “Microtubule-Stabilizing 1,2,4-Triazolo[1,5-a]pyrimidines as Candidate Therapeutics for Neurodegenerative Disease: Matched Molecular Pair Analyses and Computational Studies Reveal New Structure–Activity Insights” (Journal of Medicinal Chemistry, 2022)
# Where two headings read alike, the source gives them in different places.
# Experiments:
# [1] = test system: total α-tubulin (α-Tub) levels in QBI293 cells; assay: QBI293 cell assay: total α-tubulin ELISA; format: cell-based
# How it was run: (§1)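 AcTub and α-Tub were quantified by ELISA in whole-cell extracts normalized by BCA protein and expressed relative to vehicle. AcTub changes were also scaled to a 100 nM reference stabilizer control.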
# [2] = test system: acetylated α-tubulin (AcTub) levels in QBI293 cells; assay: QBI293 cell assay of MT stabilization: acetylated α-tubulin ELISA; format: cell-based
# How it was run: as §1
# [3] = test system: AcTub levels in OA-treated primary mouse cortical neurons; assay: Okadaic acid (OA) assay, AcTub ELISA in primary mouse cortical neurons; format: cell-based; details: OA 15 nM, 8 h, compound 1 and 10 μM
# Method: To further evaluate the activity of Class I alkyne derivatives and hybrid compounds, several compounds were also assessed for their ability to compensate for MT deficits in primary neuron cultures that were treated with the phosphatase inhibitor, okadaic acid (OA). As previously described,[11] treatment of rodent neurons with OA results in tau hyperphosphorylation and MT collapse that presumably results, at least in part, from tau disengagement from MTs. Co-treatment of neurons with Class I TPDs, such as 1, along with OA prevents this MT collapse, with a resulting normalization of MT structure and neuronal processes which can be observed upon visual inspection of the neurons or through an assessment of neuronal AcTub levels, while Class II TPDs are generally unable to provide meaningful compensation of MT deficits, especially when tested at higher (i.e., 10 μM) compound concentration.[11],[12]
# Figure 4 ELISA determination of AcTub levels in homogenates from primary rat cortical neurons treated with either vehicle, or OA (15 nM) in the presence of vehicle or TPD 1, 8, 9 (A); and primary mouse cortical neurons treated with vehicle, or OA (15 nM) in the presence of vehicle or TPD 1, 24, 45, 46, 53, 54 (B). Error bars represent SEM, with ***, p < 0.001 relative to vehicle treatment in the absence of OA as determined by one-way ANOVA.
# Compound-induced changes in acetylated-tubulin and α-tubulin in QBI293 cells or primary mouse or rat neurons were as previously described.[11],[12] For compound testing, QBI293 cells were plated at a density of 2 × 10^5 cells/well in 12-well plates. The plated cells were incubated overnight, after which the medium was aspirated and fresh medium containing vehicle (0.25–0.3% DMSO) or test compound was added. Test compounds were prepared as 4–20 mM stock solutions in 100% DMSO, and these were diluted in culture medium prior to addition to the QBI293 cells. After 4 h incubation, whole-cell extracts were prepared from the QBI293 cells as described[11] and the supernatant fraction from each sample was assessed for protein content by bicinchoninic acid (BCA) assay. The amount of acetyl-tubulin (AcTub) and α-tubulin (αTub) within the cell extract samples was quantified using specific enzyme-linked immunosorbent assays (ELISA), as previously described.[11] Acetyl-tubulin levels were determined in a similar manner in rat or mouse cortical neuron cultures in which embryonic dissociated cortical neurons were plated at 3 × 10^5 cells/well in poly-D-lysine-coated 12-well plates, essentially as previously described.[11] The neurons were allowed to grow for 10 days before they were treated for 8 h with 15 nM okadaic acid in the presence or absence of test compound prepared as described above, or vehicle (0.25% DMSO). Culture homogenates were prepared for the determination of AcTub levels by ELISA as previously described.[11]
# VehicleVehicleVehicleVehicle25 (1 µM)
# Figure S2. Assessment of AcTub levels in primary mouse cortical neurons treated with vehicle,
# (§2) (1 picture or pasted object on this page, not shown here)
# [4] = Resazurin cell viability assay, HeLa; format: cell-based; details: human, HeLa cells, three biological replicates, read-out: HeLa CC50 ± SD
# Method: (§3) Cell Culture. QBI293 and HeLa cells were cultured in DMEM supplemented with 10% heat-
# (§4) inactivated FBS and 1% penicillin-streptomycin. Cells were grown in T175 cell culture flasks maintained
# (§5) at 37 ℃ in 5% CO2 and sub-c ultured when at 60-8 0% cell confluence.
# (§6) Resazurin Cell Viability Assay. Cytotoxicity in QBI293 and HeLa cells was measured using the
# (§7) resazurin cell viability assay.1 Test compounds were serially diluted in DMSO and added to 96-well
# (§8) polystyrene assay plates to give final assay concentrations ranging from 100 nM to 4000 nM (1 µL; 1%
# (§9) total DMSO). Fresh medium was added to the assay plate (49 µL/well). QBI293 or HeLa cells were
# (§10) cells/well. Assay plates were incubated at 37 °C and 5% CO2 for 48 h, followed by addition of 20 µL 0.5
# (§11) mM resazurin (Alfa Aesar, Cat. B21187) in PBS to each well. Assay plates were incubated in the dark for
# as §2
# (§12) 4 h at 37 °C. Fluorescence was measured at 531 nm and 595 nm excitation and emission wavelengths,
# (§13) respectively, using a 2104 EnVision® multilabel plate reader. The viability of each well was normalized to
# (§14) positive and negative controls in each assay plate. Dose-response curves were generated and CC50 values
# (§15) calculated with GraphPad Prism, version 9.3 (San Diego, CA) using a sigmoidal four parameter logistic
# (§16) curve. The means ± standard deviations from three biological replicates are shown.
# (§17) (1) O'Brien, J.; Wilson, I.; Orton, T.; Pognan, F. Investigation of the Alamar Blue (resazurin) fluorescent
# (§18) dye for the assessment of mammalian cell cytotoxicity. Eur. J. Biochem. 2000, 267 (17), 5421-5426.
# [5] = Resazurin cell viability assay, QBI293; format: cell-based; details: human, QBI293 cells, three biological replicates, read-out: QBI293 CC50 ± SD
# Method: as §3, §4, §5, §6, §7, §8, §9, §10, §11, §2, §12, §13, §14, §15, §16, §17, §18
# [6] = test system: total α-tubulin (α-Tub) levels in QBI293 cells; design: method as in PMID 26980057, PMID 33411523; details: 4 h incubation, 10 μM, reported in previous studies; cited from earlier work
# [7] = test system: acetylated α-tubulin (AcTub) levels in QBI293 cells; design: method as in PMID 26980057, PMID 33411523; details: 4 h incubation, 10 μM, reported in previous studies; cited from earlier work
# [8] = 4 h, 1 uM compound, read-out: AlfaTub (1uM)
# [9] = 4 h, 10 uM compound, read-out: AlfaTub (10 uM)
# [10] = 4 h incubation, 1 μM, read-out: α-Tub 1 μM, fold-change compared to vehicle (DMSO)-treated cells
# [11] = 4 h incubation, 10 μM, read-out: α-Tub 10 μM, fold-change compared to vehicle (DMSO)-treated cells
# [12] = 4 h, 1 uM compound, read-out: AcTub (1uM)
# [13] = 4 h, 10 uM compound, read-out: AcTub (10 uM)
# [14] = 4 h incubation, 1 μM, read-out: AcTub 1 μM, fold-change compared to vehicle (DMSO)-treated cells
# [15] = 4 h incubation, 10 μM, read-out: AcTub 10 μM, fold-change compared to vehicle (DMSO)-treated cells
SMILES,"fold induction at 1 µM [1, 8]","fold induction at 10 µM [1, 9]","fold induction at 1 µM [1, 10]","fold induction at 10 µM [1, 11]",AcTub (1 uM - normalized) ([2]; 1 uM compound),AcTub (10 uM - normalized) ([2]; 10 uM compound),"fold induction at 1 µM [2, 12]","fold induction at 10 µM [2, 13]","AcTub 1 μM, fold-change compared to positive control compound 5 (100 nM) (in parentheses) ([2]; 4 h incubation, 1 μM) [fold-change]","fold induction at 1 µM [2, 14]","AcTub 10 μM, fold-change compared to positive control compound 5 (100 nM) (in parentheses) ([2]; 4 h incubation, 10 μM) [fold-change]","fold induction at 10 µM [2, 15]",prevention/correction of OA-induced MT collapse (AcTub levels) [3],CC50 at 48 h [4] [nM],CC50 at 48 h [5] [nM],"α-Tub 10 μM, fold-change compared to vehicle (DMSO)-treated cells [6] [fold-change]","AcTub 10 μM, fold-change compared to vehicle (DMSO)-treated cells [7] [fold-change]"
"C[C@@H](Nc1c(-c2c(F)cc(OCCCO)cc2F)c(Cl)nc2ncnn12)C(C)(C)C [Compound 25, (R)-3-(4-(5-Chloro-7-((3,3-dimethylbutan-2-yl)amino)-[1,2,4]triazolo[1,5-a]pyrimidin-6-yl)-3,5-difluorophenoxy)propan-1-ol]",0.96,1.06,0.96 ± 0.03,1.06 ± 0.03,1.01,0.98,9.17,8.92,1.01,9.17 ± 0.13,0.98,8.92 ± 0.36,lesser recovery of OA-induced MT collapse,,,,
"CC(C)[C@@H](C)Nc1c(-c2c(F)cc(C#CCCO)cc2F)c(Cl)nc2ncnn12 [Compound 45, (R)-4-(4-(5-Chloro-7-((3-methylbutan-2-yl)amino)-[1,2,4]triazolo[1,5-a]pyrimidin-6-yl)-3,5-difluorophenyl)but-3-yn-1-ol]",1,0.95,1 ± 0.03,0.95 ± 0.03,0.48,0.82,5.9,10.1,0.48,5.9 ± 0.32,0.82,10.1 ± 0.71,can prevent the OA-induced MT collapse,,,,
"CC(C)[C@@H](C)Nc1c(-c2c(F)cc(C#CCCCO)cc2F)c(Cl)nc2ncnn12 [Compound 46, (R)-5-(4-(5-Chloro-7-((3-methylbutan-2-yl)amino)-[1,2,4]triazolo[1,5-a]pyrimidin-6-yl)-3,5-difluorophenyl)pent-4-yn-1-ol]",1,1.37,1 ± 0.08,1.37 ± 0.05,0.40,0.68,2.59,4.43,0.40,2.59 ± 0.16,0.68,4.43 ± 0.56,can prevent the OA-induced MT collapse,,,,
"C[C@@H](Nc1c(-c2c(F)cc(C#CCCCO)cc2F)c(Cl)nc2ncnn12)C(C)(C)C [Compound 54, (R)-5-(4-(5-Chloro-7-((3,3-dimethylbutan-2-yl)amino)-[1,2,4]triazolo[1,5-a]pyrimidin-6-yl)-3,5-difluorophenyl)pent-4-yn-1-ol]",1.19,1.14,1.19 ± 0.11,1.14 ± 0.077,0.74,0.87,4.78,5.59,0.74,4.78 ± 1,0.87,5.59 ± 0.26,can prevent the OA-induced MT collapse,,,,
C[C@H](Nc1c(-c2c(F)cc(OCCCO)cc2F)c(Cl)nc2ncnn12)C(F)(F)F [Compound 64],0.73,0.37,,,1.24,0.19,6.76,1.03,,,,,,189 ± 19,226 ± 17,0.37 ± 0.02,1.03 ± 0.02
"CC[C@]1(O)C[C@@H]2CN(CCc3c([nH]c4ccccc34)[C@@](C(=O)OC)(c3cc4c(cc3OC)N(C)[C@H]3[C@@](O)(C(=O)OC)[C@H](OC(C)=O)[C@]5(CC)C=CCN6CC[C@]43[C@@H]65)C2)C1 [Vinblastine, reference compound]",,,,,,,,,,,,,,2.11 ± 0.1,3.23 ± 0.67,,
